Experimental data as given in US20130115133A1, “INACTIVATION OF MICROORGANISMS WITH MULTIDRUG RESISTANCE INHIBITORS AND PHENOTHIAZINIUMS” (priority 2004, published 2013).
Like-named read-outs stand apart in the source and are kept apart here. Non-standard residues stand in square brackets, D forms with d. Residues, ends and D or L forms follow the SMILES beside them. ξ: configuration not given here. *: point of attachment. ξR = N=C(N)NCCCC(N)C(=O)O; βNA = c1ccc2cc(N*)ccc2c1

What was measured:
[1] = tested on: S. aureus NorA-, wild type, and NorA+; assay: Photodynamic inactivation (PDI), light-dose dependent phototoxicity; type: cell-based, Staphylococcus aureus; conditions: 10 μM; for logs less killing compared to wild-type: NorA overexpressing strain; for logs of killing: wild-type strain; for logs of killing / light dose by which strain is eliminated: 30 min; for light dose by which strain is eliminated: NorA knockout strain, 635-nm light 100 mWcm^-2; for logs less killing than wild-type: NorA overexpression strain, 635-nm light; for overall order of efficiency of killing: S. aureus NorA strains
Description: (§1) A polylysine-chlorine6 conjugate (pL-ce6), and Rose Bengal (RB) (Sigma-Aldrich) were used as non-phenothiazinium-based PS (FIG. 3). Stock solutions were prepared in water at a concentration of 2-mM and stored for a maximum of 2 weeks at 4° C. in the dark before use. Spectra of stock solutions diluted 140-280 fold in methanol were recorded on an UV-visible spectroscopy system (Waldbronn, Germany). A non-coherent light source with interchangeable fiber bundles (LC122, LumaCare, London, UK) was employed. Thirty-nm band pass filters at ranges 540±15 nm for RB, 635±15 nm for TBO, and DMMB, and 660±15 nm for MB and pLce6 were used. The total power output provided out of the fiber bundle ranged from 300-700 mW. The spot was arranged to give an irradiance of 100 mW/cm^2.
(§2) Bacterial suspensions in PBS (initial concentration 10^8 cells mL^−1) were incubated with PS in the dark at room temperature for 30 minutes at concentrations varying from 1-μM to 300-μM. The cell suspensions were centrifuged at 12000 rpm and then washed twice with sterile PBS. The bacterial suspensions were placed in wells of 96 well micro titer plates (Fisher Scientific) and illuminated with appropriate light at room temperature. Fluences ranged from 0 to 20 Jcm^−2 at a fluence rate of 100 mWcm^−2. During illumination, aliquots of […] were taken to determine the colony-forming units. The contents of the wells were mixed before sampling. The aliquots were serially diluted 10-fold in PBS to give dilutions of 10^−1-10^−6 times the original concentrations and were streaked horizontally on square BHI agar plates as described by Jett et al (1997). This allowed a maximum of seven logs of killing to be measured. Plates were incubated at 37° C. overnight. Two types of control conditions were used: illumination in the absence of photosensitizer and incubation with photosensitizer in the dark.
The three isogenic strains of S. aureus were incubated with 10 μM MB for 30 minutes and then washed free of unbound dye by centrifugation and resuspension in PBS and illuminated with 100 mWcm^−2 660-nm light, and the survival fractions determined as described above.
To establish the recognition of phenothiazinium dyes as a class by NorA, the experiments described in FIG. 4 were repeated with the phenothiazinium compounds TBO and DMMB. Incubation with the photosensitizer was for 30 min followed by a wash. Bacteria were then illuminated with 100 mWcm^−2 635-nm light for both TBO and DMMB. The results shown in FIGS. 7a and 7b show a similar pattern to the susceptibilities as was found for MB. The NorA knockout strain is eliminated by 1 J/cm2 in the case of TBO and by 0.5 J/cm2 in the case of DMMB. […]

[2] = tested on: E. coli wild type and TolC-; type: cell-based, Escherichia coli
Description: as §1, §2
It was necessary to use higher overall PDI doses to kill the Gram-negative E. coli compared to the Gram-positive S. aureus. A concentration of MB of 50 μM was selected with the same 30-minute incubation and wash by centrifugation, together with light doses up to 20 J/cm^2.

[3] = tested on: P. aeruginosa MexAB-, wild type and MexAB+; type: cell-based, Pseudomonas aeruginosa; conditions: wild-type strain; 300 μM; after 20 J/cm2
Description: A polylysine-chlorine6 conjugate (pL-ce6), and Rose Bengal (RB) (Sigma-Aldrich) were used as non-phenothiazinium-based PS (FIG. 3). Stock solutions were prepared in water at a concentration of 2-mM and stored for a maximum of 2 weeks at 4° C. in the dark before use. Spectra of stock solutions diluted 140-280 fold in methanol were recorded on an UV-visible spectroscopy system (Waldbronn, Germany). A non-coherent light source with interchangeable fiber bundles (LC122, LumaCare, London, UK) was employed. […] The total power output provided out of the fiber bundle ranged from 300-700 mW. The spot was arranged to give an irradiance of 100 mW/cm^2.
Bacterial suspensions in PBS (initial concentration 10^8 cells mL^−1) were incubated with PS in the dark at room temperature for 30 minutes at concentrations varying from 1-μM to 300-μM. The cell suspensions were centrifuged at 12000 rpm and then washed twice with sterile PBS. The bacterial suspensions were placed in wells of 96 well micro titer plates (Fisher Scientific) and illuminated with appropriate light at room temperature. Fluences ranged from 0 to 20 Jcm^−2 at a fluence rate of 100 mWcm^−2. During illumination, aliquots of 10 were taken to determine the colony-forming units. The contents of the wells were mixed before sampling. […] This allowed a maximum of seven logs of killing to be measured. […]

P. aeruginosa PAO1 = type: cell-based, Pseudomonas aeruginosa; conditions: inhibitor 10 ug/ml with TBO 250 μM, 30 min, wash; 660-nm light 100 mWcm^-2

## CN(C)c1ccc2nc3ccc(=[N+](C)C)cc-3sc2c1 [MB, methylene blue]
[1]; NorA knock-out, 660-nm light, after 1 J/cm^2
  killing: complete killing
[1]; 660-nm light, at 1 J/cm^2
  logs less killing compared to wild-type: 1 log
[1]; 660-nm light, at 2 J/cm^2
  logs less killing compared to wild-type: 2 logs
[1]; 660-nm light, at 4 J/cm^2
  logs less killing compared to wild-type: 3 logs
[1]; wash, 660-nm light 100 mWcm^-2, after 1 J/cm^2
  logs of killing: 3 logs
[1]; wash, 660-nm light, after 2 J/cm^2
  logs of killing: 5 logs
[1]; wash, 660-nm light, after 4 J/cm^2
  logs of killing: 7 logs
[2]; TolC knock-out mutant, 50 μM, 30 min, wash, at 5 J/cm^2
  logs more killing than wild-type: 2 logs
[2]; TolC knock-out mutant, 50 μM, at 10 J/cm^2
  logs more killing than wild-type: three
[2]; TolC knock-out mutant, 50 μM, light doses higher than 10 J/cm^2 (up to 20 J/cm^2)
  killing: totally eliminated
[2]; TolC knock-out, 250 μM, after 20 J/cm^2 (data not shown)
  killing: totally eliminated
[2]; wild-type, 250 μM, after 20 J/cm^2 (data not shown)
  killing: totally eliminated
[3]
  logs of killing: 5 logs

## Cc1cc(N(C)C)cc2[s+]c3cc(N(C)C)cc(C)c3nc12 [DMMB, 1,9-dimethylmethylene blue]
[1]; wash
  light dose by which strain is eliminated: ≤ 0.5 J/cm2
[1]
  logs less killing than wild-type: roughly 2 logs
  overall order of efficiency of killing: DMMB>TBO>MB

## NC(N)=NCCCC(NC(=O)[C@@H](N)Cc1ccccc1)C(=O)Nc1ccc2ccccc2c1 (stereo partly drawn) [MC207110] (H-Phe-[ξR]-βNA)
P. aeruginosa PAO1
  logs of killing: 5 logs

## Cc1cc2nc3ccc(N(C)C)cc3[s+]c2cc1N.[Cl-] [TBO, Toluidine blue O]
[1]; wash
  light dose by which strain is eliminated: ≤ 1 J/cm2
[1]
  logs less killing than wild-type: roughly 2 logs
  overall order of efficiency of killing: DMMB>TBO>MB

## O=C1OC2(c3cc(I)c(O)c(I)c3Oc3c2cc(I)c(O)c3I)c2c(Cl)c(Cl)c(Cl)c(Cl)c21 [RB, Rose Bengal]
[1]; wash, 540-nm light 100 mWcm^-2
  differences in killing between the three NorA phenotypes: no differences in killing
